{
  "source": "patent US10709907B2",
  "about": "“Taurine and aloe synergistic anti-irritant compositions and methods” (Colgate-Palmolive Company, priority 2016, dated 2020)",
  "key": {"[1]": {"test_system": "In vitro skin samples (MatTek EpiDerm)", "experiment": "Cytotoxicity Assay (MTT), cell viability of reconstructed human epidermis", "format": "cell-based", "settings": "for MTT (% cell viability): untreated Control = 100", "procedure": "(§1) Two in vitro reconstructed human epidermis models were employed to assess the relative irritation potential of selected test samples, the Cytotoxicity Assay (MTT) and the Irritation Assay (IL-1α Release Assay), described below.\nCytotoxicity Assay (MTT):\nCell damage was evaluated by assessing mitochondrial metabolic activity using 3-[4,5-dimethylthiazol-2-yl]-2,5-diphenyltetrazolium bromide (MTT-reduction assay) upon exposure to the test sample. MTT solution was prepared as 1.0 mg/ml in Phosphate Buffered Saline (PBS) just before usage. In vitro skin samples (MatTek EpiDerm) were treated topically with the test sample for 1 hour in a tissue culture incubator. Following the incubation, skin samples were washed with PBS and placed in 24 well tissue culture plates, and 500 μl of the MTT solutions were added to each well and incubated at 37° C. for 2 hours. The cell survivability was analyzed by measuring the ability of the cell's mitochondria to reduce the colorless MTT to a colored formazan crystalline end product. The reaction was terminated by the removal of the MTT solution from the wells. Addition of 1.0 mL of 0.04M HCl in isopropanol to each well was used to dissolve the intracellular MTT formazan crystals. The contents of each well were mixed gently in an orbital shaker at room temperature for 1 hour and the absorbency at 570 nm was measured by an ELISA plate reader (SpectraMax M5 Multi-Mode Microplate Readers, Molecular Devices, California)."}, "[2]": {"test_system": "IL-1α release, 3D EpiDerm skin models (SIT-200 skin irritation model)", "experiment": "Irritation Assay (IL-1α Release Assay) by ELISA", "format": "cell-based, human", "settings": "untreated Control = 100", "description": "as §1\nIrritation Assay (IL-1α Release Assay):\nTo document the skin irritation of Antiperspirant Active Ingredients, we have conducted in vitro experiments using 3D EpiDerm skin models (SIT-200 skin irritation model, MatTek Corporation, Ashland, Mass. 01721). In vitro skin samples were treated topically with the test compound for 1 hour in tissue culture incubator. Following the incubation, skin samples were washed with PBS and placed in a culture medium and continue to incubate for 24 hours. Cell culture media was collected for IL-1α release assay. Higher the IL-1a release means higher the irritation potential. IL-1α release was analyzed by ELISA assay kit (Invitrogen, Grand Island, N.Y. 14072) and (R&D Systems, Minneapolis, Minn. 55413)."}},
  "data": [
    {"smiles": "O.O.O.O.O.O.[Al+3].[Cl-].[Cl-].[Cl-]", "note": "[12% AlCl3, Aluminum Chloride Hexaaqua]", "values": [
      {"measurement": "MTT (% cell viability)", "setting": "[1]; Example 3, formulated samples", "value": 99, "unit": "%"},
      {"measurement": "IL-1α (percentage compared to untreated tissue)", "setting": "[2]; Example 3, formulated samples", "value": 234, "unit": "%"}
    ]},
    {"smiles": "O.O.O.O.O.O.[Al+3].[Cl-].[Cl-].[Cl-]", "note": "[14% AlCl3, Aluminum Chloride Hexaaqua]", "values": [
      {"measurement": "MTT (% cell viability)", "setting": "[1]; Example 1, topical treatment 1 hour", "value": 78, "unit": "%"},
      {"measurement": "reduction of cell viability compared to untreated tissue (MTT)", "setting": "[1]; Example 2", "value": "15-20%"},
      {"measurement": "MTT (% cell viability)", "setting": "[1]; Example 2, topical treatment 1 hour", "value": 84, "unit": "%"},
      {"measurement": "IL-1α (percentage of the test value for the Control)", "setting": "[2]; Example 1, topical treatment 1 hour, then 24 hours in culture medium", "value": 345, "unit": "%"},
      {"measurement": "IL-1α (percentage compared to untreated tissue)", "setting": "[2]; Example 2, topical treatment 1 hour, then 24 hours in culture medium", "value": 594, "unit": "%"}
    ]}
  ]
}
